Reference: patent publication US8802597B2, “Herbicidal pyrimidines” (E I du Pont de Nemours and Company, priority 2003, dated 2014)
Read-outs that look alike come from different tables or passages of the source.

What was measured:
Format in all cases: in vivo
[1] = system: chickweed (Stellaria media); test: Test C postemergence; settings: Stellaria media, post-emergence
Summary of the method: (§1)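 Test compounds, formulated in a non-phytotoxic solvent mix with surfactant, were applied to freshly planted seeds and, at the same time, to emerged plants at 1- to 4-leaf stage (2 to 18 cm). After 12 to 14 days in the greenhouse, response was scored visually versus controls, 0 = no effect, 100 = complete control.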

[2] = system: common ragweed (Ambrosia elatior); test: Test C pre/postemergence; settings: for Plant response rating, Ragweed: Preemergence, scale 0 to 100, 0 no effect, 100 complete control
Summary of the method: as §1

[3] = system: velvetleaf (Abutilon theophrasti); test: Test C pre/postemergence; settings: for Plant response rating, Velvetleaf: Preemergence, scale 0 to 100, 0 no effect, 100 complete control
Summary of the method: as §1

[4] = system: goosegrass (Eleusine indica); test: Test C pre/postemergence; settings: for pest or weed control at 16 g/ha: 16 g ai/ha
Summary of the method: as §1

[5] = system: woolly cupgrass (Eriochloa villosa); test: Test C pre/postemergence; settings: for pest or weed control at 16 g/ha: 16 g ai/ha
Summary of the method: as §1

[6] = system: pigweed (Amaranthus retroflexus); test: Test C pre/postemergence; settings: for pest or weed control at 16 g/ha: 16 g ai/ha
Summary of the method: as §1

[7] = system: yellow nutsedge (Cyperus esculentus); test: Test C pre/postemergence; settings: for pest or weed control at 16 g/ha: 16 g ai/ha
Summary of the method: as §1

[8] = system: bermudagrass (Cynodon dactylon); test: Test C pre/postemergence; settings: for pest or weed control at 16 g/ha: 16 g ai/ha
Summary of the method: as §1

[9] = system: barnyardgrass (Echinochloa crus-galli); test: Test A pre/postemergence
Summary of the method: (§2)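 Soil: loam blended with sand. Formulation: non-phytotoxic solvent mixture with surfactant. Timing: preemergence soil spray plus concurrent postemergence spray (plants 2–10 cm, 1–2 leaves). Readout: visual injury versus untreated controls at ~10 days, 0–100.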

[10] = system: crabgrass (Digitaria sanguinalis); test: Test A pre/postemergence
Summary of the method: as §2

[11] = Preemergence, 31 g ai/ha, scale 0 to 100, 0 no effect, 100 complete control
[12] = Preemergence, 62 g ai/ha, scale 0 to 100, 0 no effect, 100 complete control
[13] = Preemergence, 125 g ai/ha, scale 0 to 100
[14] = Postemergence, 125 g ai/ha, 0 to 100 scale (0 no effect, 100 complete control)
[15] = Postemergence, 500 g ai/ha, 0 to 100 scale (0 no effect, 100 complete control)
[16] = Preemergence, 125 g ai/ha, 0 to 100 scale where 0 is no effect and 100 is complete control, approximately ten days
[17] = Preemergence, 500 g ai/ha, 0 to 100 scale where 0 is no effect and 100 is complete control, approximately ten days

SMILES: Nc1nc(C2CC2)nc(C(=O)O)c1Cl [Compound 135, 6-amino-5-chloro-2-cyclopropyl-4-pyrimidinecarboxylic acid]
- pest or weed control at 16 g/ha ([1]; 16 g ai/ha, read-out: Plant response rating (scale of 0 to 100), Chickweed): 0%
- pest or weed control at 31 g/ha ([1]; 31 g ai/ha, read-out: Plant response rating (scale of 0 to 100), Chickweed): 15%
- pest or weed control at 62 g/ha ([1]; 62 g ai/ha, read-out: Plant response rating (scale of 0 to 100), Chickweed): 25%
- pest or weed control at 125 g/ha ([1]; 125 g ai/ha, scale 0 to 100 (0 no effect, 100 complete control), read-out: Chickweed plant response rating): 85%
- pest or weed control at 16 g/ha ([2]; Ambrosia artemisiifolia, post-emergence, Postemergence, 16 g ai/ha, read-out: Plant response rating (scale of 0 to 100), Ragweed): 75%
- pest or weed control at 31 g/ha ([2]; Ambrosia artemisiifolia, post-emergence, Postemergence, 31 g ai/ha, read-out: Plant response rating (scale of 0 to 100), Ragweed): 80%
- pest or weed control at 62 g/ha ([2]; Ambrosia artemisiifolia, post-emergence, Postemergence, 62 g ai/ha, read-out: Plant response rating (scale of 0 to 100), Ragweed): 85%
- pest or weed control at 125 g/ha ([2]; Ambrosia artemisiifolia, post-emergence, Postemergence, 125 g ai/ha, scale 0 to 100 (0 no effect, 100 complete control), read-out: Ragweed plant response rating): 95%
- Plant response rating, Ragweed ([2]; 16 g ai/ha): 5
- Plant response rating, Ragweed ([2]; 62 g ai/ha): 35
- Plant response rating, Ragweed [2]: 70
- pest or weed control at 16 g/ha ([3]; Abutilon theophrasti, post-emergence, Postemergence, 16 g ai/ha, read-out: Plant response rating (scale of 0 to 100), Velvetleaf): 55%
- pest or weed control at 31 g/ha ([3]; Abutilon theophrasti, post-emergence, Postemergence, 31 g ai/ha, read-out: Plant response rating (scale of 0 to 100), Velvetleaf): 90%
- pest or weed control at 125 g/ha ([3]; Abutilon theophrasti, post-emergence, Postemergence, 125 g ai/ha, scale 0 to 100 (0 no effect, 100 complete control), read-out: Velvetleaf plant response rating): 95%
- Plant response rating, Velvetleaf ([3]; 16 g ai/ha): 60
- Plant response rating, Velvetleaf ([3]; 31 g ai/ha): 85
- Plant response rating, Velvetleaf ([3]; 62 g ai/ha): 90
- pest or weed control at 16 g/ha ([4]; Eleusine indica, post-emergence, Postemergence, read-out: Plant response rating (scale of 0 to 100), Goosegrass): 5%
- pest or weed control at 31 g/ha ([4]; Eleusine indica, post-emergence, Postemergence, 31 g ai/ha, read-out: Plant response rating (scale of 0 to 100), Goosegrass): 35%
- pest or weed control at 62 g/ha ([4]; Eleusine indica, post-emergence, Postemergence, 62 g ai/ha, read-out: Plant response rating (scale of 0 to 100), Goosegrass): 45%
- pest or weed control at 125 g/ha ([4]; Eleusine indica, post-emergence, Postemergence, 125 g ai/ha, scale 0 to 100 (0 no effect, 100 complete control), read-out: Goosegrass plant response rating): 55%
- pest or weed control at 16 g/ha ([4]; Eleusine indica, pre-emergence, Preemergence, scale 0 to 100, 0 no effect, 100 complete control, read-out: Plant response rating, Goosegrass): 0%
- Plant response rating, Goosegrass [4, 11]: 0
- Plant response rating, Goosegrass [4, 12]: 0
- Plant response rating, Goosegrass [4, 13]: 40
- pest or weed control at 16 g/ha ([5]; Eriochloa villosa, post-emergence, Postemergence, read-out: Plant response rating (scale of 0 to 100), Cupgrass, Woolly): 30%
- pest or weed control at 31 g/ha ([5]; Eriochloa villosa, post-emergence, Postemergence, 31 g ai/ha, read-out: Plant response rating (scale of 0 to 100), Cupgrass, Woolly): 60%
- pest or weed control at 62 g/ha ([5]; Eriochloa villosa, post-emergence, Postemergence, 62 g ai/ha, read-out: Plant response rating (scale of 0 to 100), Cupgrass, Woolly): 60%
- pest or weed control at 125 g/ha ([5]; Eriochloa villosa, post-emergence, Postemergence, 125 g ai/ha, scale 0 to 100 (0 no effect, 100 complete control), read-out: Cupgrass, Woolly plant response rating): 80%
- pest or weed control at 16 g/ha ([5]; Eriochloa villosa, pre-emergence, Preemergence, scale 0 to 100, 0 no effect, 100 complete control, read-out: Plant response rating, Cupgrass, Woolly): 0%
- Plant response rating, Cupgrass, Woolly [5, 11]: 0
- Plant response rating, Cupgrass, Woolly [5, 12]: 0
- Plant response rating, Cupgrass, Woolly [5, 13]: 0
- pest or weed control at 16 g/ha ([6]; Amaranthus retroflexus, post-emergence, Postemergence, read-out: Plant response rating (scale of 0 to 100), Pigweed): 85%
- pest or weed control at 31 g/ha ([6]; Amaranthus retroflexus, post-emergence, Postemergence, 31 g ai/ha, read-out: Plant response rating (scale of 0 to 100), Pigweed): 95%
- pest or weed control at 62 g/ha ([6]; Amaranthus retroflexus, post-emergence, Postemergence, 62 g ai/ha, read-out: Plant response rating (scale of 0 to 100), Pigweed): 100%
- pest or weed control at 125 g/ha ([6]; Amaranthus retroflexus, post-emergence, Postemergence, 125 g ai/ha, scale 0 to 100 (0 no effect, 100 complete control), read-out: Pigweed plant response rating): 100%
- pest or weed control at 16 g/ha ([6]; Amaranthus retroflexus, pre-emergence, Preemergence, scale 0 to 100, 0 no effect, 100 complete control, read-out: Plant response rating, Pigweed): 70%
- Plant response rating, Pigweed [6, 11]: 70
- Plant response rating, Pigweed [6, 12]: 80
- pest or weed control at 16 g/ha ([7]; Cyperus, post-emergence, Postemergence, read-out: Plant response rating (scale of 0 to 100), Nutsedge, Yellow): 0%
- pest or weed control at 31 g/ha ([7]; Cyperus, post-emergence, Postemergence, 31 g ai/ha, read-out: Plant response rating (scale of 0 to 100), Nutsedge, Yellow): 0%
- pest or weed control at 62 g/ha ([7]; Cyperus, post-emergence, Postemergence, 62 g ai/ha, read-out: Plant response rating (scale of 0 to 100), Nutsedge, Yellow): 15%
- pest or weed control at 125 g/ha ([7]; Cyperus, post-emergence, Postemergence, 125 g ai/ha, scale 0 to 100 (0 no effect, 100 complete control), read-out: Nutsedge, Yellow plant response rating): 40%
- pest or weed control at 16 g/ha ([7]; Cyperus, pre-emergence, Preemergence, scale 0 to 100, 0 no effect, 100 complete control, read-out: Plant response rating, Nutsedge, Yellow): 0%
- Plant response rating, Nutsedge, Yellow [7, 11]: 0
- Plant response rating, Nutsedge, Yellow [7, 12]: 0
- pest or weed control at 16 g/ha ([8]; Cynodon dactylon, post-emergence, Postemergence, read-out: Plant response rating (scale of 0 to 100), Bermudagrass): 40%
- pest or weed control at 62 g/ha ([8]; Cynodon dactylon, post-emergence, Postemergence, 62 g ai/ha, scale 0 to 100 (0 no effect, 100 complete control), read-out: Bermudagrass plant response rating): 60%
- pest or weed control at 125 g/ha ([8]; Cynodon dactylon, post-emergence, Postemergence, 125 g ai/ha, scale 0 to 100 (0 no effect, 100 complete control), read-out: Bermudagrass plant response rating): 75%
- pest or weed control at 16 g/ha ([8]; Cynodon dactylon, pre-emergence, Preemergence, scale 0 to 100, 0 no effect, 100 complete control, read-out: Plant response rating, Bermudagrass): 0%
- Plant response rating, Bermudagrass [8, 11]: 0
- Plant response rating, Bermudagrass [8, 12]: 0
- Plant response rating, Bermudagrass [8, 13]: 0
- Plant response rating, Barnyardgrass [9, 14]: 75
- Plant response rating, Barnyardgrass [9, 15]: 90
- Plant response rating, Barnyardgrass [9, 16]: 65
- Plant response rating, Barnyardgrass [9, 17]: 90
- Plant response rating, Crabgrass [10, 14]: 65
- Plant response rating, Crabgrass [10, 15]: 65
- Plant response rating, Crabgrass [10, 16]: 75
- Plant response rating, Crabgrass [10, 17]: 95
